Experiments:
[1] = biological target: T1, PTEN (Homo sapiens, UniProt P60484); experiment: Malachite Green phosphate release assay, PTEN; assay type: biochemical
T1 construct: purchased
Procedure: The absorbance measurements shown correspond to liberated PO4 generated by recombinant PTEN (1.44 μg) when incubated with its substrate, PI (3,4,5)P3, as detected by a Malachite Green reporter.
(A) Purified, recombinant SHIP1 has significant activity as determined by the reduction in mean polarization units (mPu) in an FP assay designed for 5′-inositol phosphatases (Echelon Biosciences, Salt Lake City, Utah.). Note that no significant reduction in mP is obtained when the enzyme buffer without SHIP1 is added to the FP assay (Buffer) or when purified SHIP1 is assayed in the absence of its PI(3,4,5)P3 substrate (SHIP1 only).
Assay of SHIP1 enzymatic activity: A fluorescent polarization (FP) assay that detects the 5′-inositol phosphatase activity of SHIP1 was developed based on a previously established protocol [Drees B E, et al., Comb Chem High Throughput Screen (2003) 6(4):321-330] and was obtained from Echelon Biosciences (Salt Lake City, USA). Modifications of the protocol included the application of SHIP1 in the assay and an increase in the concentration of MgCl2 to […] to maximize the activity of SHIP1 in this assay. […]

[2] = system: Mac1+Gr1+ myeloid immunoregulatory cells; experiment: FACS quantitation of Mac1+Gr1+ myeloid suppressor (MySC/MIR) cells in spleen and lymph node of treated mice; assay type: in vivo, mouse; conditions: for number of Mac1+Gr1+ MySC (MDSC): daily injection at 125 μM for 7 days; for number of MIR cells: daily i.p. injection at 60 μM for 7 days
Procedure: FACS quantitation of Mac1^+Gr1^+ Myeloid-Derived Suppressor Cells (Mac1^+Gr1^+ MySC) (A,B) and FoxP3^+CD4^+CD25^+ Treg cells (C,D) in spleen and lymph node of C57BL6 mice treated with NSC13480, vehicle or non-manipulated mice (Normal). ***p<0.001; *p<0.05.
In addition, both donor and host Treg cells can also limit or abrogate GvHD. […] (Paraiso, K. H., et al. 2007. J Immunol 178:2893). […] Adult mice were treated for 7 days with a daily injection of NSC13480 at 125 μM. The frequency of MySC and Treg cells was tested in the spleens of mice treated with NSC13480, the vehicle used for delivery of NSC 13480 and normal, untreated mice.
Expansion of the Mac1^+Gr1^+ MIR cell compartment can suppress GvHD. [Ghansah T, et al., J Immunol (2004) 173(12):7324-7330; Paraiso K H, et al., J Immunol (2007) 178(5):2893-2900; MacDonald K P, et al., J Immunol (2005) 174(4):1841-1850] Thus, the ability 3α-aminocholestane to expand the MIR compartment in peripheral lymphoid tissues, where GvHD and organ transplant rejection are primed, was tested. Adult mice were treated for 7 days with a daily intraperitoneal (i.p.) injection of 3α-aminocholestane at 60 μM. We then compared the frequency of MIR cells in the spleens and LN of mice treated with 3α-aminocholestane to that of control mice treated with either their respective vehicles or to unmanipulated mice. […] Thus, consistent with the findings in mice genetically ablated for SHIP1 expression during adult physiology [Paraiso K H, et al., J Immunol (2007) 178(5):2893-2900], inhibition of SHIP1 activity in adult mice expands the MIR cell compartment in peripheral lymphoid tissues.
Antibody staining and flow cytometry (Examples 1-6): Anti-CD16/32 was co-incubated with the samples to block Fc receptor binding. Antibodies used for staining included: NK1.1 (PK136); CD3e (145-2C11); Ly49G2 (4D11); Gr-1 (RB6-8C5); Mac-1(M1/70); CD11c (HL3); CD4 (GK1.5); CD25 (PC61) and were obtained from BD Pharmingen (San Jose, Calif.). FoxP3 (FJK-16s) was purchased from eBioScience (San Diego, Calif.). All samples were acquired on a FACSCalibur and analyzed using FlowJo8.7.1. For viable staining, dead cells were excluded from the analysis following cytometer acquisition of data by exclusion of the 7AAD dye. For staining of FoxP3, viable cells were first stained for extacellular markers followed by fixation and permeabilization to stain for the intracellular FoxP3.
Use of SHIP1 inhibitory compounds for in vitro and in vivo studies: For in vitro studies 3α-aminocholestane was suspended in 100% ethanol. […]
Antibody staining and flow cytometry (Examples 7-9): Anti-CD16/32 was incubated with the samples to block Fc receptor binding. […] All samples were acquired on a FACSCalibur and analyzed using FlowJo8.7.1. […]

T1 sequence (P60484 whole entry, species assumed): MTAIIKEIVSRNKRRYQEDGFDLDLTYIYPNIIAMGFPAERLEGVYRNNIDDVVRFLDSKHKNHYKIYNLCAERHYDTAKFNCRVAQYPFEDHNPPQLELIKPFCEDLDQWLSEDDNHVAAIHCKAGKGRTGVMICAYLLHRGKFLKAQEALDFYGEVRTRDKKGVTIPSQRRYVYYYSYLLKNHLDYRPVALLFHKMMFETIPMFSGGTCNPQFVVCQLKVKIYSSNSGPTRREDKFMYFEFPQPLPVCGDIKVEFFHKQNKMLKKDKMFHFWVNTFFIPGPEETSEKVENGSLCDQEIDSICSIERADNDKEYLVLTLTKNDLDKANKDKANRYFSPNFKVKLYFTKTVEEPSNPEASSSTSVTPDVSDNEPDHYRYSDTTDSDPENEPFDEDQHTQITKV

Structure (SMILES) | inhibition of PTEN ([1]; at 100 μM, Malachite Green reporter, recombinant PTEN 1.44 μg) | number of Mac1+Gr1+ MySC (MDSC) ([2]; lymph node) | number of Mac1+Gr1+ MySC (MDSC) ([2]; spleen) | inhibition of PTEN activity ([1]; at 1 mM, Malachite Green assay) | number of MIR cells ([2]; lymph node) | number of MIR cells ([2]; spleen)
OC(c1cc(-c2ccccc2)nc2c1ccc1ccccc12)C1CCCCN1 (stereo not drawn) [NSC13480, (2-phenylbenzo[h]quinolin-4-yl)-piperidin-2-ylmethanol] | no significant inhibition | increased significantly | increased significantly | – | – | –
CC(C)CCC[C@@H](C)[C@H]1CC[C@H]2[C@@H]3CC[C@H]4C[C@H](N)CC[C@]4(C)[C@H]3CC[C@]12C [NSC23922, (3R,5S,8R,9S,10S,13R,14S,17R)-10,13-dimethyl-17-[(2R)-6-methylheptan-2-yl]-2,3,4,5,6,7,8,9,11,12,14,15,16,17-tetradecahydro-1H-cyclopenta[a]phenanthren-3-amine] | – | – | – | fails to inhibit | increased significantly | increased significantly

— patent publication US9006221B2, “Method of modulating ship activity” (H. Lee Moffitt Cancer Center and Reserach Institute, Inc., priority 2008, dated 2015)
